Converted amounts (≈) assume the structure as drawn.
Experiments:
Trypanosoma brucei = test: Assay 3 Trypanosoma brucei cell growth inhibition assay; format: cell-based; conditions: T. b. brucei BSF427, 69 h + 4 h resazurin, maximum threshold 8.0, read-out: pEC50 value against Trypanosoma brucei (converted)
Procedure: Measurement of the ability of the compounds to inhibit trypanosome (T. b. brucei, BSF427, VSG118) cell growth was performed using a modification of the cell viability assay previously described by Raz et al. (Raz B.; Iten M.; Grether-Buhler Y.; Kaminski R.; Brun R. The Alamar Blue assay to determine drug sensitivity of African trypanosomes (T. b. rhodesiense and T. b. gambiense) in vitro. Acta Trop. 1997, 68, 139-147). Compounds were dissolved in DMSO at a top concentration of 10 mM and serially diluted in half log steps to achieve a range of final assay concentrations of 50 μM to 0.5 nM. Compound at each concentration (200-fold final) was added to clear 96-well tissue culture plates in a volume of 1 μL. Then 2000 cells per well in relevant growth medium (HMI-9T for T. brucei, a modification of HMI-9 as described by Hurumi et al. (Hirumi H.; Hirumi K. Continuous cultivation of Trypanosoma brucei blood stream forms in a medium containing a low concentration of serum-protein without feeder cell-layers. J. Parasitol. 1989, 75, 985-989.) where 0.2 mM 2-mercaptoethanol was replaced with 0.056 mM thiolglycerol, and MEM with 10% FBS for MRC5) were then added to columns 1-11 of the plates in a volume of 199 μL. To column 12, 200 μL of medium was added to provide a no cells control. Plates were then incubated at 37° C. in an atmosphere of 5% CO2 for 69 h, before the addition of 20 μL of 500 μM rezasurin solution, and a further incubation period of 4 h. Plates were then read on a BioTek flx800 fluorescent plate reader, and percentage inhibition was compared to the maximum and minimum assay controls. Concentration effect curves were fitted using nonlinear regression using XLFit 4.2 and EC50 values determined.

[1] = Assay 4 solubility assay, ChemiLuminescent Nitrogen Detection (CLND); format: physicochemical; conditions: phosphate buffered saline, pH 7.4, aqueous buffer, kinetic from dmso stock, pH 7.4 PBS, from 10 mM DMSO stock, 1 h at room temperature
How it was run: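 Kinetic solubility: 10 mM DMSO stock diluted 5 µl into 100 µl pH 7.4 PBS, incubated 1 h at room temperature, then filtered. Filtrate quantified by HPLC with chemiluminescent nitrogen detection against ondansetron and caffeine standards; solubility in µM by linear-regression calibration.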

Leishmania donovani = test: Assay 5 Leishmania donovani intracellular assay (eGFP amastigotes in THP-1 cells); format: cell-based; conditions: 96 h, read-out: pEC50 value against Leishmania donovani (converted)
Procedure: Compounds were dispensed into black 384-well assay plates (Greiner) by acoustic dispensing (LabCyte ECHO). For potency determinations, eleven-point, one in three dilution curves were generated, with a top concentration of 50 μM. THP-1 human monocytes cells were dispensed in T225 tissue culture flasks and differentiated using 30 nM of PMA, after 24 hours they were infected overnight using Leishmania donovani expressing Green Fluorescent Protein (eGFP) amastigotes in the same T225 tissue culture flasks at a multiplicity of infection of 10. Next, any remaining free amastigotes were washed away with PBS and the infected THP-1 cells were harvested by trypsinisation. The infected cells were then plated into 384-well plates containing the compounds to be tested, at 3000 cells per well in RPMI media with 2% FBS and 25 mM Sodium bicarbonate. After 96 h incubation at 37° C. in presence of 5% CO2, the plates were fixed with 4% formaldehyde for 30 minutes, washed with PBS and stained with 0.1 mg/mL of DAPI for 30 minutes and washed again with PBS. The plates were imaged on a Perkin Elmer Opera high-content imaging system using a 20× air objective with two expositions, one for DAPI stain and other for eGFP. Images were analysed using the Acapella building blocks system (Perkin Elmer). […]

[2] = Assay 5 Leishmania donovani intracellular assay, cytotoxicity against THP-1 cells; format: cell-based; conditions: human, total number of THP-1 cells, minimum threshold 4.3, read-out: cytotoxicity against THP-1 cells, pEC50 value (converted)
How it was run: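 PMA-differentiated THP-1 cells infected overnight with eGFP L. donovani amastigotes (MOI 10), then exposed 96 h at 37 °C to 11-point 1:3 dilutions from 50 μM. After fixation and DAPI staining, high-content imaging scored parasites per cell, % infected cells and total THP-1 count.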

[3] = Assay 6 Trypanosoma cruzi intracellular assay, cytotoxicity against H9c2 cells; format: cell-based; conditions: rat, H9C2 cardiomyocytes infected with T. cruzi trypomastigotes, total number of H9C2 cells, minimum threshold 4.3, read-out: cytotoxicity against H9c2 cells, pEC50 (converted)
Procedure: Compounds were dispensed into black 384-well assay plates (Greiner) by acoustic dispensing (LabCyte ECHO). For potency determinations, eleven-point, one in three dilution curves were generated, with a top concentration of 50 μM. H9C2 rat cardiomyocytes cells were dispensed in T225 tissue culture flasks and after 4 hours they were infected during 18 hours with T. cruzi trypomastigotes in the same T225 tissue culture flasks at a multiplicity of infection of 1. Next, any remaining free trypomastigotes were washed away with PBS and the infected H9C2 cells were harvested by trypsinisation. The infected H9C2 cells were then plated into 384-well plates containing the compounds to be tested, at 2500 cells per well in DMEM media with 2% FBS, 1% Penicillin/Streptomocin, 2 mM L-Glutamine, 1 mM Na Pyruvate and 25 mM HEPES. After 72 h incubation at 37° C. in presence of 5% CO2, the plates were fixed and stained with 4% formaldehyde and 2 μM Draq5 for 3 hours at room temperature. The plates were imaged on a Perkin Elmer Opera high-content imaging system using a 20× air objective. Images were analysed using the Acapella building blocks system (Perkin Elmer). The image analysis algorithm first identified the H9C2 nuclei followed by demarcation of the cytoplasm and identification of intracellular amastigotes. This algorithm reported mean number of parasites per H9C2 cell, the percentage of infected H9C2 cells and the total number of H9C2 cells.

## O=C(Nc1ccc(F)c(-c2cn3nc(N4CCOCC4)cnc3n2)c1)N1CCCC1 [Example 1, N-(4-fluoro-3-(2-morpholinoimidazo[1,2-b][1,2,4]triazin-6-yl)phenyl)pyrrolidine-1-carboxamide]
Trypanosoma brucei
  EC50: < 10 nM
[1]
  solubility at 1 h: 100 to 416 µM (≈ 41.1 to 171 µg/mL)
Leishmania donovani
  EC50: 158 nM
[2]
  EC50 at 96 h: > 50.1 µM
[3]
  EC50 at 72 h: > 50.1 µM
